Data taken from patent US11975005B2, “Treatment of respiratory diseases” (TIANLI BIOTECH PTY LTD, priority 2015, dated 2024).

Columns and labels:
[1] = system: RSV; assay: 5 day model of RSV infection, treatments from day 1; type: in vivo, mice; conditions: administered from day 1
[2] = biological target: CK1ε (Homo sapiens, UniProt P49674); assay: CK1ε inhibition (IC50); type: biochemical
[3] = system: human lung fibroblasts; assay: bFGF/TGFβ proliferation of human lung fibroblasts (viable cell number); type: cell-based; conditions: 48 h
Excerpt: Experiments described in the current Example and Example 14 involved culture of human parenchymal fibroblasts, measurement of their proliferation and gene expression response, the methods for which are detailed in Schuliga et al 2009 (Am J Respir Cell Mol Biol. 2009; 41(6):731-41). Interaction between TGFβ and bFGF in human lung fibroblasts. […] An interaction previously characterized in airway smooth muscle cultures is that TGFβ reduces the proliferative effects of bFGF. A similar finding is observed in human lung fibroblasts, whereby TGFβ reduces the bFGF mitogenic effects.

[4] = biological target: T1, ALK5 (Homo sapiens, UniProt P36897); assay: ALK5 inhibition (IC50); type: biochemical
T1 sequence (P36897 34-503): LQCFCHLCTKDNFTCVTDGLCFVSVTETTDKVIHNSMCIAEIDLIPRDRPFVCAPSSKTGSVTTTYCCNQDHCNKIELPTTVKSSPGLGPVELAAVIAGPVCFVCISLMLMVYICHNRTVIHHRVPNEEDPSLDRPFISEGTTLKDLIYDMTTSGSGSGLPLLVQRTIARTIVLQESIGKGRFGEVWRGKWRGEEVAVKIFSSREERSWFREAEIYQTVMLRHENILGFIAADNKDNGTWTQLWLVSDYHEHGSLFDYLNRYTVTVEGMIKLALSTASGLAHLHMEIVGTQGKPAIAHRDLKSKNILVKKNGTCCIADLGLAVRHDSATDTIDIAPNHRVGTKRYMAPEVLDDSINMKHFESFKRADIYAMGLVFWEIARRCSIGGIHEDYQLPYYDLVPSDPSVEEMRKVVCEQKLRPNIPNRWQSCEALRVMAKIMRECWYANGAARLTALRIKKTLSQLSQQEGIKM

[5] = system: glucocorticoid response element (GRE) activity; assay: GRE activity / GRE reporter in BEAS-2B cells; type: cell-based, human; conditions: BEAS-2B cells; RV16 0.1 or 1.0 MOI; SB431542 1 μM
Protocol: Data are presented as the means and SEM of 3 independent experiments. *P<0.05, cf corresponding Dex 30 nM response.
(§1) The methods used in Examples 1 to 5 (and 10, 19, 20) are similar to those reported in Salem et al 2012 (Br J Pharmacol. 166:2036-2048) and again in Keenan et al 2014 (Respiratory Research, e15:55) in which methods for cell culture, GRE assays and gene expression measurements are fully described. Additional methods for growth of respiratory syncytial virus (RSV) and rhinovirus (RV) are described in Collins et al 2007 (Respir Physiol Neurobiol. 2007 Jun. 15; 156(3):345-52.) and by Xatzipsalti and papdopoulos, 2007 (Contrib Microbiol. 2007; 14:33-41).

[6] = system: GRE-dependent gene expression; assay: Glucocorticoid-induced gene expression in BEAS-2B cells; type: cell-based, human
Excerpt: as §1
Data are presented as the means and SEM of 4 independent experiments. *P<0.05, cf corresponding Dex 30 nM response. […] Thus, TNFα contribution to glucocorticoid resistance, may be independent of TGFβ. The resistance is exemplified by the epithelial sodium channel alpha subunit SCNN1a which assembles into a Na channel that is thought to contribute to water reabsorption from the airspaces that are flooded during acute lung injury.
TGFβ suppression ranged in magnitude amongst the genes selected for analysis. […] TGFβ and Dex synergise in increasing the expression of PAI-1 (FIG. 24B).

[7] = human lung fibroblasts, PF4800567 1.0 μM
[8] = FIG. 6A, BEAS-2B, SB431542 1 μM, PF670462 10 μM

Sequence of CK1ε (P49674 whole entry): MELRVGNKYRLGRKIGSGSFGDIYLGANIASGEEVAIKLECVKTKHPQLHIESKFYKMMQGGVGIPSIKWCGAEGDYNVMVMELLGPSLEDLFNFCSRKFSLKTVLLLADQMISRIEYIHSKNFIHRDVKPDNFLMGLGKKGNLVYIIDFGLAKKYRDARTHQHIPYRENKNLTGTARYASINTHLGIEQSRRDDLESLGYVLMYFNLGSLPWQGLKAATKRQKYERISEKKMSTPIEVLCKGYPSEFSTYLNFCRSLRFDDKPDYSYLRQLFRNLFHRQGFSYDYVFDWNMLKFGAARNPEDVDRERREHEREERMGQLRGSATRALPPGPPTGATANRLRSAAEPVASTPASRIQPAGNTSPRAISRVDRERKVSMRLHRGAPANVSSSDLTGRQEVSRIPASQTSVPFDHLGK

Compound	accumulation of inflammatory cells in the BAL fluid [1]	IC50 [2] [µM]	bFGF induced mitogenesis [3, 7]	bFGF induced mitogenesis in the presence of TGFβ [3, 7]	IC50 [4] [µM]	effect of TGFβ on bFGF mitogenesis ([3]; human lung fibroblasts from donors without IPF, viable cell number)	impairment of Dexamethasone 30 nM GRE responses by Rhinovirus (RV16) infection [5]	suppression of Dex (30 nM) gene expression response (SCNN1a) induced by IL-13/IL-4 ([6]; BEAS-2B cells, IL-13/IL-4 at 10 ng/ml, PF670462 1 or 10 μM, SB431542 1 μM)	impairment of Dexamethasone 30 nM GILZ gene expression responses by RV16 infection ([6]; BEAS-2B cells, RV16 1.0 MOI, pretreatment)	suppression of Dex (30 nM) gene expression response (SCNN1a) induced by the combination TNFα, IL-13 and IL-4 ([6]; BEAS-2B cells, each at 0.1 ng/ml, PF670462 1 or 10 μM, SB431542 1 μM)	TGFβ suppression of glucocorticoid-induced CDKN1C (p57kip2) expression ([6]; BEAS-2B, Dex 100 nM, PF670462 1-10 μM)	levels of GILZ in RV infected cells [6, 8]	levels of GILZ in uninfected cells [6, 8]	RV infection-induced decrease of Dex-induced GILZ expression ([6]; FIG. 6B, BEAS-2B, SB431542 3 μM, PF670462 3 μM)
O=C(NC1CCOCC1)c1ccc(-c2cc(-c3c[nH]nc3-c3ccccn3)ccn2)cc1 [GW788388]	no activity	18.6												
Nc1ncnc2c1c(COc1cccc(Cl)c1)nn2C1CCOCC1 [PF4800567]		0.011	reduced	remained suppressed	4.13									
NC(=O)c1ccc(-c2nc(-c3ccc4c(c3)OCO4)c(-c3ccccn3)[nH]2)cc1 [SB431542]						able to block	prevented	some impact	greatly diminished	no detectable effect	completely blocked	increased	but not in uninfected cells	prevented
